Like-named read-outs stand apart in the source and are kept apart here. Where only a bound is given, the exact number is not on record here.

In experiment [1] the target is T1, presynaptic α2 -adrenoceptors (Mus musculus, UniProt Q01338).
T1 construct: isolated, electrically stimulated mouse was deferens preparation; from tissue; host or cells: mouse vas deferens
T1 sequence (Q01338 1-465): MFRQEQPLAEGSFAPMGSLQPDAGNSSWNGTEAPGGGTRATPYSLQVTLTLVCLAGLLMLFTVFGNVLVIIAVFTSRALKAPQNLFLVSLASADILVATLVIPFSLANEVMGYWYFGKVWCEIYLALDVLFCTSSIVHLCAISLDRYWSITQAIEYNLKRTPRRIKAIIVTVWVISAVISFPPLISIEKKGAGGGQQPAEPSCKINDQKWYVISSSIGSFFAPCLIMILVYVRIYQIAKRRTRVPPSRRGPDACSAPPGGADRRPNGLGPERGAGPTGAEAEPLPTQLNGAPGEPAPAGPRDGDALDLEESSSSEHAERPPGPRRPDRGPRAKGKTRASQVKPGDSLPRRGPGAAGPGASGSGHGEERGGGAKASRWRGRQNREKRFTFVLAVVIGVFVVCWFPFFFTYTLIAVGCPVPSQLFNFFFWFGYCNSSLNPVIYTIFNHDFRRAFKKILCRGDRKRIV
The experiment can be described thus: α2-agonism in vitro, isolated electrically stimulated mouse vas deferens. It is filed as cell-based. The following applies: for EC50: negative log of molar concentration producing 50 percent of maximal inhibition of electrically induced contractions, read-out: α2 -agonism in vitro (mouse vas deferens). pD2 (converted). On the procedure:
α2 -agonism was determined by means of isolated, electrically stimulated mouse was deferens preparation (Marshall et al., Br. J. Pharmac. 62, 147-151, 1978). […] Results are shown in Table 1, where the α2 -agonist effect is presented as the pD2 -value (negative logarith of the molar concentration of the compound producing 50 percent of maximal inhibition.)

For experiment [2], the system named is mice. The experiment can be described thus: Acetic acid-induced writhing test. As to conditions: Mus musculus, sc, 45 min before 1% acetic acid i.p.; writhes counted 25 min. It is filed as in vivo. How it is done:
The sedative-analgesic properties of the compounds were studied in the spontaneous motility and writhing-test in the mouse. Spontaneous motility of mice and rats was measured using the Animex-activity meter. The test compounds were administered i.p. 30 minutes before the measuring periods of two minutes. In the writhing test the compounds studied and saline were administered s.c. to […], and 45 min. later 1 ml of 1% acetic acid was administered i.p. The number of writhes was recorded in the following 25 min. period (Koster et al., Fred. Proc. 18: 412, 1959).

The subject of experiment [3] is α2 -receptors. The experiment can be described thus: biochemical. Format: binding, rat. As to conditions: ratio of 3H-prazosin IC50 to 3H-clonidine IC50. The source says: (§1) The selectivity of the d-enantiomer as an α2 -agonist was studied in receptor binding experiments using rat brain membranes. […] 108, 163-9, 1985.
The target in experiment [4] is T2, α2 -receptors (Rattus norvegicus, UniProt P22909).
T2 construct: from tissue; host or cells: rat brain membranes
T2 sequence (P22909 1-465): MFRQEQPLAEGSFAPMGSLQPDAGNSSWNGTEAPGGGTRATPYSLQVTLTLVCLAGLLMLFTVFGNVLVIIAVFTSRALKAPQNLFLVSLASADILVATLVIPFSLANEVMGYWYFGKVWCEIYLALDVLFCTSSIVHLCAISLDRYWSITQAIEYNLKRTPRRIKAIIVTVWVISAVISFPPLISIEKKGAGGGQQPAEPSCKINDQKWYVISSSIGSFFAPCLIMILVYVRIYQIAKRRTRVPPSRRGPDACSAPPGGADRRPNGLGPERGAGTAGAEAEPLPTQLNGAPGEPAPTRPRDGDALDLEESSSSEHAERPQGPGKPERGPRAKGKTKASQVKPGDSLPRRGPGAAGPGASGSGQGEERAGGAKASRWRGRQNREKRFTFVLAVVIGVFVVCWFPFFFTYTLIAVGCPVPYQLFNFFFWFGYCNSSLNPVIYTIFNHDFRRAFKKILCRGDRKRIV
Put plainly: biochemical. Format: binding.
Source text: as §1

Experiment [5] concerns mice. The experiment can be described thus: Spontaneous motility (Animex-activity meter). It is filed as in vivo. As to conditions: Mus musculus, sc, 0.5 h; s.c.; 30 minutes before two-minute measuring period; read-out: ED50 in reducing spontaneous motility in mice.
In another experiment the target is α1 -receptors. Put plainly: 3H-prazosin displacement, receptor binding in rat brain membranes.
Source text: as §1

For experiment [6], the system named is rat. Put plainly: Elevated t-maze test, exploration of open and enclosed arms (anxiolytic effects). Format: in vivo. As to conditions: for Mean number of entries, closed / Mean number of entries, open / Mean number of entries, total / open/total entries: 5 minutes, n = 6. How it is done:
The anxiolytic effects of the compounds were studied using a method described by Handley and Mithoni: Naunyn-Schmiedeb, Arch. Pharmacol. 327, 1-5, 1984. In this test the manner of exploration of open and enclosed arms in an elevated t-maze by a rat is examined. It has been shown that anxiolytic drugs increase the relative exploration of open arms. A rat is placed in the center of the t-maze and the number of open and enclosed entries is recorded during 5 minutes.

The next experiment concerns Sprague-Dawley rats. As to conditions: anesthetized rats; for Decrease in BP / Decrease in heart rate: femoral vein. On the procedure:
After this, the femoral artery was connected by a polyethylene tube to a blood pressure transducer. The test substance was then injected into the femoral vein and the blood pressure and the pulse frequency were registered with a recorder.

Experiment [7] relates to rat. The following applies: for CSF MHPG-SO4 (% of control): 4 h after adm. The source says:
It is well known that anxiety states connected to withdrawal symptoms are due to noradrenergic hyperactivity.

Broadly, the ED50 is the midpoint of the dose-response relation. What is called IC50 is the concentration needed to halve the response being measured. Read a low IC50 as inhibition by little substance. For the compound `Cc1cccc(C(C)c2cnc[nH]2)c1C` (racemic) [medetomidine], the EC50 in experiment [1] is 1 nM. The ED50 in the experiment on mice [2] is 0.02 mg/kg; in the experiment with mice [5], 0.05 mg/kg. The “α2 /α1 -selectivity” value with α2 -receptors [3] turned out to be 5060. Also, the IC50 at α2 -receptors [4] was 3.3 nM; at α1 -receptors it was 16700 nM.
For `Cc1cccc([C@@H](C)c2cnc[nH]2)c1C` [1-enantiomer], the EC50 in experiment [1] was 1000 nM. For the same compound, the “type of agonism (mouse vas deferens)” value in [1] (remark in pD2 cell) is on record as “partial agonist”. The median effective dose (ED50) in the experiment with mice [2] and in the experiment on mice [5] was over 10 mg/kg each time. The “α2 /α1 -selectivity” value in the experiment with α2 -receptors [3] was 4129. The IC50 on α2 -receptors [4] was 46 nM; on α1 -receptors it was 190000 nM.
Take `Clc1cccc(Cl)c1N=C1NCCN1` [clonidine, reference compound]: in experiment [1], the EC50 is 3.16 nM. For the same compound, the ED50 in the experiment on mice [2] was determined as 0.03 mg/kg; in the experiment on mice [5], 0.3 mg/kg. The compound also came in with an IC50 on α1 -receptors of 6200 nM.
As to `Cc1cccc([C@H](C)c2cnc[nH]2)c1C` [d-enantiomer], the EC50 in [1] is 0.501 nM. In addition, the “Mean number of entries, closed” value came out at 10.6 with rat [6] (dose 0.0003 mg/kg); 10.6 in the experiment on rat [6] (dose 0.001 mg/kg); 9.5 with rat [6] (dose 0.003 mg/kg); 8.8 in the experiment with rat [6] (dose 0.01 mg/kg); 3.0 with rat [6] (dose 0.03 mg/kg). Besides, the “Mean number of entries, open” value with rat [6] (dose 0.0003 mg/kg) is given as 4.8; with rat [6] (dose 0.001 mg/kg), 3.2; in the experiment with rat [6] (dose 0.003 mg/kg) it was 4.0; in the experiment on rat [6] (dose 0.01 mg/kg), 5.8; in the experiment on rat [6] (dose 0.03 mg/kg) it was 2.5. Further, the “Mean number of entries, total” value with rat [6] (dose 0.0003 mg/kg) was determined as 14.0; in the experiment on rat [6] (dose 0.001 mg/kg), 13.8; in the experiment with rat [6] (dose 0.003 mg/kg) it was 13.5; in the experiment with rat [6] (dose 0.01 mg/kg), 14.6; with rat [6] (dose 0.03 mg/kg), 5.5. Further, the open/total entries in the experiment on rat [6] (dose 0.0003 mg/kg) is reported as 0.20; in the experiment with rat [6] (dose 0.001 mg/kg), 0.23; in the experiment with rat [6] (dose 0.003 mg/kg) it was 0.29; in the experiment on rat [6] (dose 0.01 mg/kg) it was 0.39; in the experiment on rat [6] (dose 0.03 mg/kg) it was 0.45. In addition, the “anxiolytic effect in the elevated t-maze test (in words)” value in the experiment with rat [6] (summary of Table 5) is recorded as “anxiolytic profile”. The ED50 in the experiment with mice [2] was 0.01 mg/kg; with mice [5] it was 0.02 mg/kg. The “effect on blood pressure and heart rate (in words)” value with Sprague-Dawley rats (summary of Table 7) is “clear anti-hypertensive and bradycardia effects”. Moreover, the “Decrease in BP” value in the experiment on Sprague-Dawley rats (dose 0.001 mg/kg) is listed as -8%; with Sprague-Dawley rats (dose 0.003 mg/kg) it was -23%; in the experiment on Sprague-Dawley rats (dose 0.01 mg/kg), -43%; in the experiment on Sprague-Dawley rats (dose 0.03 mg/kg) it was -45%; with Sprague-Dawley rats (dose 0.1 mg/kg), -45%. Moreover, the “Decrease in heart rate” value in the experiment on Sprague-Dawley rats (dose 0.001 mg/kg) is reported as -21%; in the experiment on Sprague-Dawley rats (dose 0.003 mg/kg), -40%; with Sprague-Dawley rats (dose 0.01 mg/kg), -47%; in the experiment on Sprague-Dawley rats (dose 0.03 mg/kg), -48%; with Sprague-Dawley rats (dose 0.1 mg/kg), -50%. In addition, the “α2 /α1 -selectivity” value in the experiment on α2 -receptors [3] worked out at 45849. Also, the IC50 against α2 -receptors [4] was 1.2 nM; at α1 -receptors it was 55000 nM. Moreover, the “effect on noradrenaline release (in words)” value with rat [7] (central and peripheral nervous systems) is recorded as “able to reduce noradrenaline release”. Besides, the “CSF MHPG-SO4 (% of control)” value is recorded as -10 % of control in the experiment with rat [7] (dose 3 μg/kg), -20 % of control in the experiment with rat [7] (dose 10 μg/kg), -30 % of control in the experiment with rat [7] (dose 30 μg/kg) and -65 % of control in the experiment with rat [7] (dose 100 μg/kg).
As to `Cc1cccc(Cc2c[nH]cn2)c1C` [detomidine], in experiment [1], the EC50 is 3.16 nM. The ED50 in the experiment with mice [2] was 0.02 mg/kg; with mice [5] it was 0.3 mg/kg. For the same compound, the IC50 at α2 -receptors [4] turned out to be 3.7 nM.
Take `CN1C(=O)CN=C(c2ccccc2)c2cc(Cl)ccc21` [diazepam, reference compound]: in the experiment on rat [6] (dose 1 mg/kg), the “Mean number of entries, closed” value is reported as 10.5; the “Mean number of entries, open” value amounted to 5.2; the “Mean number of entries, total” value turned out to be 15.7; the open/total entries was 0.33.

Values taken from US4910214A, “Optical isomer of an imidazole derivative medetomidine as an alpha-2-receptor agonist” (Farmos Yhtyma Oy, priority 1987, dated 1990).
